Experimental data: ChEMBL document CHEMBL1122267, “Pyridazinones. 3. Synthesis, antisecretory, and antiulcer activities of 2-cyanoguanidine derivatives” (1983)
Active and inactive are the calls of the source. The calls are words filed in the database; no cut-off is given here.

Columns and labels:
Rattus norvegicus [1] = organism: Rattus norvegicus; test: Effective dose for 50 percent inhibition of gastric antisecretory activity in the 4 hr pylorus-ligated rat; type: functional; conditions: Stomach
Rattus norvegicus [2] = test: Compound was evaluated for antiulcer activity in rats due to stress after oral administration; type: functional
Rattus norvegicus [3] = test: Percent inhibition of gastric antisecretory activity in the 4 hr pylorus-ligated rat to that of control at a dose of 100 mg/kg; type: functional; conditions: Stomach, read-out: Inhibition
Rattus norvegicus [4] = test: Compound was evaluated for antiulcer activity due to stress in rats after oral administration; not statistically significant; type: functional, organism-based
Rattus norvegicus [5] = test: Percent inhibition of gastric antisecretory activity in the 4 hr pylorus-ligated rat to that of control at a dose of 100 mg/kg; not statistically significant; type: functional; conditions: Stomach
Rattus norvegicus [6] = test: Compound was evaluated for antiulcer activity in rats after oral administration. (stress ulcer); NS means not statistically significant; type: functional, organism-based

| Structure (SMILES) | ED50 (Rattus norvegicus [1]) | ED50 (Rattus norvegicus [2]) | inhibition in vivo at 100 mg/kg (Rattus norvegicus [3]) | ED50 (Rattus norvegicus [4]) | inhibition in vivo at 100 mg/kg (Rattus norvegicus [5]) | ED50 (Rattus norvegicus [6]) |
| --- | --- | --- | --- | --- | --- | --- |
| CN/C(=N\CCSCc1nc[nH]c1C)NC#N [CIMETIDINE] | 60.3 mg/kg | 43.2 mg/kg | 80.6% |  |  |  |
| C/N=C(\NC#N)NCCCCn1nc(-c2ccccc2)ccc1=O | 32.4 mg/kg | 38.5 mg/kg | 79% |  |  |  |
| C/N=C(\NC#N)NCCCCOCn1nc(-c2ccccc2)ccc1=O | > 100 mg/kg |  | 32.8% | inactive |  |  |
| C/N=C(\NC#N)NCCCOCn1nc(-c2ccccc2)ccc1=O | < 100 mg/kg |  | 49.8% | inactive |  |  |
| C/N=C(\NC#N)NCCSCn1nc(C)ccc1=O | > 100 mg/kg | > 100 mg/kg | 30% |  |  |  |
| CC/N=C(\NC#N)NCCSCCn1nc(-c2ccccc2)ccc1=O | < 100 mg/kg |  | 50.8% |  |  |  |
| CCC/N=C(\NC#N)NCCSCCn1nc(-c2ccccc2)ccc1=O | > 100 mg/kg |  | 33.5% |  |  |  |
| CCC/N=C(\NC#N)NCCSCn1nc(-c2ccccc2)ccc1=O | > 100 mg/kg | 97.6 mg/kg | 37.3% |  |  |  |
| C/N=C(\NC#N)NCCOCn1nc(-c2ccccc2)ccc1=O | < 82.3 mg/kg | > 100 mg/kg | 60.6% |  |  |  |
| C/N=C(\NC#N)NCCSCCCn1nc(-c2ccccc2)ccc1=O |  | > 100 mg/kg |  |  | 18.2% |  |
| C/N=C(\NC#N)NCCSCn1nc(-c2ccccc2)ccc1=O | < 30.5 mg/kg | 28.5 mg/kg | 83.3% |  |  |  |
| C/N=C(\NC#N)NCCSCn1nc(-c2ccc(C)cc2)ccc1=O | < 53.8 mg/kg |  | 62.5% |  |  |  |
| CC/N=C(\NC#N)NCCSCn1nc(C)ccc1=O | > 100 mg/kg |  | 26.7% |  |  |  |
| C/N=C(\NC#N)NCCSCCn1nc(-c2ccccc2)ccc1=O | < 80 mg/kg | 77.6 mg/kg | 58.3% |  |  |  |
| CC/N=C(\NC#N)NCCSCn1nc(-c2ccccc2)ccc1=O | < 100 mg/kg | 63.1 mg/kg | 50.1% |  |  |  |
| C/N=C(\NC#N)NCCSCn1nc(N2CCOCC2)ccc1=O |  |  |  |  | -12.5% | inactive |
| CC/N=C(\NC#N)NCCSCCCn1nc(-c2ccccc2)ccc1=O |  |  |  |  | 22.9% |  |
| C/N=C(\NC#N)NCCSCn1nc(N(C)C)ccc1=O |  |  |  |  | 6.9% |  |
| C/N=C(\NC#N)NCCSCn1nc(-c2ccc(Cl)cc2)ccc1=O | < 39.1 mg/kg |  | 70.3% |  |  |  |
